Measured values published in patent US20250127903A1, “SUBSTITUTED PIPERIDINE DEGRONIMERS FOR TARGET PROTEIN DEGRADATION” (priority 2016, published 2025).

Biological target: CRBN-DDB1 (Homo sapiens (Human), UniProt Q96SW2)
Assay: CRBN-DDB1 fluorescence polarization (FP) binding assay
Settings: Table 2 Degrons; displacement of Thalidomide-Alexa Fluor or Pomalidomide-fluorescein probe
Protocol: Measuring compound ligand binding to CRBN-DDB1 was carried out using an established sensitive and quantitative in vitro fluorescence polarization (FP) based binding assay. […] Compounds were dispensed from serially diluted DMSO stock into black 384-well compatible fluorescence polarization plates using an Echo acoustic dispenser. […] Matching control wells excluding CRBN-DDB1 were used to correct for background fluorescence. Plates were read on an Envision plate reader with appropriate FP filter sets.

Chain of CRBN-DDB1 (Q96SW2 whole entry, looked up): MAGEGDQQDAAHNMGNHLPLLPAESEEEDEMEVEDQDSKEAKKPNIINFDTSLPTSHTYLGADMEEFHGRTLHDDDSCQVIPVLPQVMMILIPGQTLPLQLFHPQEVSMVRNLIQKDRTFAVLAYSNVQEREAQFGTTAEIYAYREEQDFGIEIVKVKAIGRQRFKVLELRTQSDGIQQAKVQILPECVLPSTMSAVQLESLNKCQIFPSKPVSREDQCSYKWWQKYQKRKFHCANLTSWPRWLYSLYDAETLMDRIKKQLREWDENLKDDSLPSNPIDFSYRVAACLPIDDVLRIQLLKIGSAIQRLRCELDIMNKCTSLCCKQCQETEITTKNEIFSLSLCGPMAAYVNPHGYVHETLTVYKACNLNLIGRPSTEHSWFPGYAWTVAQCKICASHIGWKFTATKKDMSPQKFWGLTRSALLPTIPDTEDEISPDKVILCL
Chain of CRBN-DDB1 (Q16531 whole entry partner, looked up): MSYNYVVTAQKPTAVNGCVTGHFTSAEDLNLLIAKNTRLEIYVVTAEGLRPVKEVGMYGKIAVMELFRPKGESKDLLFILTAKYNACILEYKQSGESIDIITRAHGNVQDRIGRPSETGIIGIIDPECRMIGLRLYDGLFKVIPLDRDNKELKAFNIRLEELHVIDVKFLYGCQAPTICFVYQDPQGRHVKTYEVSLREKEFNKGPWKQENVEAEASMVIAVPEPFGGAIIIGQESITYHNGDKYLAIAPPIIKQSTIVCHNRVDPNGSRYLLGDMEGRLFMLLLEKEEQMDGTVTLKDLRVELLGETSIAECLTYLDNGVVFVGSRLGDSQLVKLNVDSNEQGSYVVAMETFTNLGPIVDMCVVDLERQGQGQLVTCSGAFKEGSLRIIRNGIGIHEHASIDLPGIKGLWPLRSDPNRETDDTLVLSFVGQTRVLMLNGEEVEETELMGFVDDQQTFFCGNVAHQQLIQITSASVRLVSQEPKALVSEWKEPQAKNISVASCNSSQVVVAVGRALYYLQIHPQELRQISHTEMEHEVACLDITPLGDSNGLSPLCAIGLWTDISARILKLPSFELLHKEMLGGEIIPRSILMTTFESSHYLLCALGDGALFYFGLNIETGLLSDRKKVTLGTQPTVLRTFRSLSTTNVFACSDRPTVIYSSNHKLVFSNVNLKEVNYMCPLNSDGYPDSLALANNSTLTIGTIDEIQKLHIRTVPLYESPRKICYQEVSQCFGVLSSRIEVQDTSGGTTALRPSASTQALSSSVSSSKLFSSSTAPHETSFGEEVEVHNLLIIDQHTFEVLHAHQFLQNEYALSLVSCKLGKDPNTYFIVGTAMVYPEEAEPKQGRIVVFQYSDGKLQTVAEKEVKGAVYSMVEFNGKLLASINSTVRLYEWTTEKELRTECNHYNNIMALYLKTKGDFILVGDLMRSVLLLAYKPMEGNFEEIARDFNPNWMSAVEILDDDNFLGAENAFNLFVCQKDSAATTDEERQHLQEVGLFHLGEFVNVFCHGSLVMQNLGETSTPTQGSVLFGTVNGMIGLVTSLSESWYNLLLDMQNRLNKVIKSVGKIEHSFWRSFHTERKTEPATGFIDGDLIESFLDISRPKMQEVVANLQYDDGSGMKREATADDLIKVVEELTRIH

Kd: < 10 µM
Structure (SMILES): CC(C)(C)OC(=O)N1CCC(n2cc(CNc3cccc4c3C(=O)N(C3CCC(=O)NC3=O)C4=O)nn2)CC1 (stereo not shown) [Compound 264, tert-Butyl 4-(4-(((2-(2,6-Dioxopiperidin-3-yl)-1,3-dioxoisoindolin-4-yl)amino)methyl)-1H-1,2,3-triazol-1-yl)piperidine-1-carboxylate]
